Measured values reported in paper PMC8041784, “Preference of Proteomonas sulcata anion channelrhodopsin for NO3^− revealed using a pH electrode method” (Scientific Reports, 2021).

Tests used:
[1] = target: T1, GtACR1 (Guillardia theta, UniProt L1J207); test: visible absorption spectrum of purified protein; assay type: binding; settings: covalent (retinal protonated Schiff base); 10 mM MOPS pH 7, 1 M NaCl, 0.05% DDM
T1 construct: gene GUITHDRAFT_111593; 295 residues, C-terminal 8xHis tag, codon-optimised gene, expressed in Pichia pastoris SMD1168H cells; also purified in DDM
T1 sequence (L1J207 entry or part of it): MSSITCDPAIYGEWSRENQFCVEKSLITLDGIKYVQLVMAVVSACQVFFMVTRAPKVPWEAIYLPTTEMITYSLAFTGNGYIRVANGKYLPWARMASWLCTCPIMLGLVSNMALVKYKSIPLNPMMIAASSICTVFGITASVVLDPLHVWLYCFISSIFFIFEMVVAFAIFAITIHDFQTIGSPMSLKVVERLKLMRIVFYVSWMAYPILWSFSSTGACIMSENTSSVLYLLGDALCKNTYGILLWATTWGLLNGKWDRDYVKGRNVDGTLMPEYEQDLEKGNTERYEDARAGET

[2] = target: T1, GtACR1; test: light-induced pH change of yeast cell suspension (pH electrode); assay type: cell-based; settings: 300 mM NaNO3; 530 nm LED 10 mW/cm^2; initial pH about 5; about 16 °C

| SMILES | visible absorption spectrum of purified protein [1] | light-induced pH change of yeast cell suspension (pH electrode) [2] |
| --- | --- | --- |
| CC1=C(/C=C/C(C)=C/C=C/C(C)=C/C=O)C(C)(C)CCC1 [all-trans-retinal] | Visible absorption spectrum of purified GtACR1 |  |
| O=[N+]([O-])O [NO3^−] |  | significant transport activities were obtained for the anions except for F^− and Asp^− |
